Results taken from ChEMBL document CHEMBL5247651, “Oxadiazolopyridine Derivatives as Efficacious Mitochondrial Uncouplers in the Prevention of Diet-Induced Obesity” (J Med Chem, 2023).
Calls of active or inactive are those of the source. No cut-off for these calls is given here.

Columns and labels:
[1] = (§1) Induction of mitochondrial uncoupling activity in rat L6 cells assessed as increase in oxygen consumption rate at 0.37 to 200 uM measured after 90 mins by agilent Seahorse XF analyzer relative to BAM15; format: functional; settings: dose 0.37-200 µM, 1.5 h
[2] = Induction of mitochondrial uncoupling activity in rat L6 cells assessed as increase in oxygen consumption rate measured after 90 mins by agilent Seahorse XF analyzer; format: functional, cell-based
[3] = system: L6; test: as §1; format: functional; settings: dose 0.37-200 µM
[4] = system: L6; settings: Rattus norvegicus, time 90.0 min
[5] = Cmax in C57BL/6 mouse at 10 mg/kg, po administered via gavage measured upto 24 hrs by LC/MS-MS analysis; format: ADME, organism-based; parameters: dose 10 mg/kg, time < 24 hrs, route po; settings: in vivo
[6] = Half life in C57BL/6 mouse at 10 mg/kg, po administered via gavage measured upto 24 hrs by LC/MS-MS analysis; format: ADME, organism-based; settings: in vivo
[7] = system: Mus musculus; test: Anti-obesity activity against HFD-induced C57BL/6J mouse model assessed as reduction in diet-induced weight gain at 125 mg/kg/day measured after 8 weeks; format: functional; parameters: scale not given: the % may be the effect or the level left
[8] = system: Mus musculus; test: Anti-obesity activity against HFD-induced C57BL/6 mouse model assessed as reduction in body fat mass at 5 mg/kg, po via gavage administered 3 times a week measured after 6 weeks; format: functional; parameters: scale not given: the % may be the effect or the level left

SMILES | pEC50 [2] | Activity [1] | further results
COc1ccc(Nc2cc3nonc3nc2O)cc1 |  |  | Activity [3]: inactive; pEC50 [4]: inactive
Oc1nc2nonc2cc1Nc1ccccc1OC(F)(F)F |  |  | Activity [3]: inactive; pEC50 [4]: inactive
Oc1nc2nonc2cc1Nc1cc(OC(F)(F)F)ccc1F | 5.5 | 59% | EC50 [2]: 3.4 µM
CC(C)(C)c1ccccc1Nc1cc2nonc2nc1O |  |  | Activity [3]: inactive; pEC50 [4]: inactive
Cc1ccc(Nc2cc3nonc3nc2O)cc1 |  |  | Activity [3]: inactive; pEC50 [4]: inactive
Oc1nc2nonc2cc1Nc1cccc(OC(F)(F)F)c1F | 5.9 | 30% | 
Oc1nc2nonc2cc1Nc1cc(OC(F)(F)F)c(F)cc1F | 5.7 | 58% | 
Oc1nc2nonc2cc1Nc1cccc(S(F)(F)(F)(F)F)c1 | 5.9 | 20% | 
Oc1nc2nonc2cc1Nc1ccc(F)cc1F |  |  | Activity [3]: inactive; pEC50 [4]: inactive
CS(=O)(=O)c1ccc(Nc2cc3nonc3nc2O)cc1 |  |  | Activity [3]: inactive; pEC50 [4]: inactive
Oc1nc2nonc2cc1Nc1cc(F)cc(OC(F)(F)F)c1 |  | 6% | pEC50 [4]: inactive
Oc1nc2nonc2cc1Nc1ccc(F)c(F)c1 | 4.2 | 17% | 
Oc1nc2nonc2cc1Nc1ccc(S(F)(F)(F)(F)F)cc1 | 6.2 | 4% | 
Oc1nc2nonc2cc1Nc1ccc(C(F)(F)F)nc1 | 4.7 | 26% | EC50 [2]: 20 µM
Oc1nc2nonc2cc1Nc1cc(F)ccc1F | 4.7 | 27% | 
Oc1nc2nonc2cc1Nc1ccc(OC(F)(F)F)c(F)c1 | 5.6 | 25% | 
Oc1nc2nonc2cc1Nc1ccc(OC(F)(F)F)cc1 | 5.8 | 14% | 
Oc1nc2nonc2cc1Nc1cccc(OC(F)(F)F)c1 | 5.3 | 17% | 
Oc1nc2nonc2cc1Nc1ccc(F)c(F)c1F |  | 2% | pEC50 [4]: inactive

SMILES | pEC50 [2] | Activity [1] | further results
Oc1nc2nonc2cc1Nc1ccc(F)cc1 |  | 6% | pEC50 [4]: inactive
Oc1nc2nonc2cc1Nc1c(F)cccc1F |  | 6% | pEC50 [4]: inactive
O=C(Nc1ccc([N+](=O)[O-])cc1Cl)c1cc(Cl)ccc1O [NICLOSAMIDE] |  |  | Activity [7]: 25%
Oc1nc2nonc2cc1Nc1ccccc1F |  |  | pEC50 [4]: inactive
O=S(=O)(c1cccc(Nc2cc3nonc3nc2O)c1)C(F)(F)F | > 4 | 13% | 
Oc1nc2nonc2cc1Nc1ccc(OC(F)(F)C(F)F)cc1 |  |  | Activity [3]: inactive; pEC50 [4]: inactive
Oc1nc2nonc2cc1Nc1c(F)c(F)c(C(F)(F)F)c(F)c1F | 5.9 | 69% | Cmax [5]: 21 µM; t1/2 [6]: 15.6 h; EC50 [2]: 2 µM
Oc1nc2nonc2cc1Nc1cccc(C(F)(F)F)c1F |  | 3% | pEC50 [4]: inactive
O=S(=O)(c1ccc(Nc2cc3nonc3nc2O)cc1)C(F)(F)F | 6 | 25% | 
Oc1nc2nonc2cc1Nc1ccc(C(F)(F)F)cc1 |  | 28% | EC50 [2]: 6.9 µM
O=C(Nc1cc(Cl)cc(Cl)c1)Nc1cc(Cl)cc(Cl)c1 |  |  | Activity [8]: 35%
Oc1nc2nonc2cc1Nc1cccc(F)c1 |  | 3% | pEC50 [4]: inactive
Oc1nc2nonc2cc1Nc1cc(F)c(C(F)(F)F)c(F)c1 | 5.9 | 33% | 
Oc1nc2nonc2cc1Nc1cc(F)cc(F)c1 | 4.3 | 24% | 
Oc1nc2nonc2cc1Nc1ccc(C(F)(F)F)cc1F |  | 9% | pEC50 [4]: inactive
Oc1nc2nonc2cc1Nc1c(F)cc(F)cc1F | 4.4 | 14% | 
Oc1nc2nonc2cc1Nc1cccc(F)c1F |  | 3% | pEC50 [4]: inactive
Oc1nc2nonc2cc1Nc1cc(F)c(F)c(F)c1 | 5.6 | 21% | 

Second part, led by results:

pEC50 [2] | SMILES | Activity [1] | further results
4.8 | Oc1nc2nonc2cc1Nc1ccccc1C(F)(F)F | 20% | 
5.8 | Oc1nc2nonc2cc1Nc1cccc(C(F)(F)F)c1 | 14% | 
5.5 | Oc1nc2nonc2cc1Nc1cc(C(F)(F)F)c(F)cc1F | 51% | Cmax [5]: 25 µM; t1/2 [6]: 1.3 h; EC50 [2]: 1.4 µM
5.8 | Oc1nc2nonc2cc1Nc1cc(C(F)(F)F)cc(C(F)(F)F)c1 | 35% | 
6.1 | Oc1nc2nonc2cc1Nc1cc(F)cc(C(F)(F)F)c1 | 11% | 
5.5 | Oc1nc2nonc2cc1Nc1ccc(OC(F)(F)F)cc1C(F)(F)F | 57% | Cmax [5]: 10 µM; t1/2 [6]: > 24 h; EC50 [2]: 3.1 µM
5.3 | Oc1nc2nonc2cc1Nc1cccc(F)c1C(F)(F)F | 26% | 
6.1 | Oc1nc2nonc2cc1Nc1cc(F)c(C(F)(F)F)cc1F | 26% | 
5.4 | Oc1nc2nonc2cc1Nc1cc(C(F)(F)F)ccc1F | 54% | Cmax [5]: 46 µM; t1/2 [6]: 1 h; EC50 [2]: 1.5 µM
5.7 | Oc1nc2nonc2cc1Nc1cc(C(F)(F)F)ccc1C(F)(F)F | 72% | Cmax [5]: 29 µM; t1/2 [6]: 2.2 h; EC50 [2]: 1.5 µM
5.7 | Oc1nc2nonc2cc1Nc1ccc(F)cc1OC(F)(F)F | 14% | 
5.9 | Oc1nc2nonc2cc1Nc1cc(F)ccc1OC(F)(F)F | 13% | 
6 | Oc1nc2nonc2cc1Nc1ccc(C(F)(F)F)c(C(F)(F)F)c1 | 10% | 
5.1 | Oc1nc2nonc2cc1Nc1cc(F)ccc1C(F)(F)F | 53% | EC50 [2]: 7.8 µM
5.8 | Oc1nc2nonc2cc1Nc1ccc(OC(F)(F)F)cc1F | 11% | 
6 | Oc1nc2nonc2cc1Nc1ccc(C(F)(F)F)cc1C(F)(F)F | 34% | 
4.3 | Oc1nc2nonc2cc1Nc1c(F)cccc1C(F)(F)F | 10% | 
6.1 | Oc1nc2nonc2cc1Nc1ccc(C(F)(F)F)c(F)c1 | 10% | 
5.7 | Oc1nc2nonc2cc1Nc1cccc(C(F)(F)F)c1C(F)(F)F | 11% | 
5.3 | Oc1nc2nonc2cc1Nc1ccc(F)cc1C(F)(F)F | 29% | 
